Assay [1] deals with T1, Urokinase-type plasminogen activator (Homo sapiens, UniProt P00749). Kind of assay: Compound was tested for the rate constant of deacylation against Urokinase-type plasminogen activator.
Assay [2] deals with T1, Urokinase-type plasminogen activator. Kind of assay: Compound was tested for the rate constant of deacylation against the enzyme Urokinase-type plasminogen activator. Conditions: read-out: koff (s-1).
The target of a further assay is T2, Serine protease 1 (Bos taurus, UniProt P00760).
T2 sequence (P00760 whole entry): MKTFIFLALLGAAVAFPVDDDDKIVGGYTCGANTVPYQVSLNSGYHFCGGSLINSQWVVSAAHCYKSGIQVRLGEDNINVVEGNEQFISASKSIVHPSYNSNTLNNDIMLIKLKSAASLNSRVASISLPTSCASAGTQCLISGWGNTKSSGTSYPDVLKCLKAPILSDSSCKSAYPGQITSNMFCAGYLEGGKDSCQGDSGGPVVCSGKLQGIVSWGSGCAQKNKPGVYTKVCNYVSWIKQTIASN
The assay is described as follows: Compound was tested for the rate constant of deacylation against the enzyme trypsin.

Assay [3] has as its target T1, Urokinase-type plasminogen activator. Kind of assay: Compound was tested for the rate constant of deacylation against Urokinase-type plasminogen activator.

Each structure is given as a SMILES string.

`NC(N)=Nc1ccc(C2C/C(=C/I)OC(=O)C2NC(=O)c2ccccc2)cc1` (stereo not given): the dissociation rate constant (koff) in assay [1] and in assay [2] was 1.3e-05 s⁻¹ in each case.

At Serine protease 1, `NC(N)=Nc1ccc(C2CC(=O)O/C(=C\I)C2)cc1` (stereo not given) returned a koff of 0.00033 s⁻¹.

`C=C1CC(c2ccc(N=C(N)N)cc2)C(NC(=O)c2ccccc2)C(=O)O1` (stereo not given): the koff stood at 0.00025 s⁻¹ on Serine protease 1 and 3.3e-05 s⁻¹ in assay [3].

The term koff denotes the rate constant with which the complex falls apart.

Values taken from BindingDB's records for doi:10.1021/jm00101a006 (University of Illinois, 1992).
